Results as given in publication PMC3263710, “Synthesis and Inhibiting Activity of Some 4-Hydroxycoumarin Derivatives on HIV-1 Protease” (ISRN Pharmaceutics, 2011).
Non-standard residues stand in square brackets, D forms with d. Residues, ends and D or L forms follow the SMILES beside them. *: point of attachment. Sta = CC(C)C[C@H](N)[C@@H](O)CC(=O)O; Isovaleryl = CC(C)CC(=O)*

Legend:
MT-4 cells = assay: Cytotoxicity by MTT uptake assay (maximal nontoxic concentration); assay type: cell-based; conditions: for maximal nontoxic concentration (MNC), concentration tested: reference inhibitors; for maximal nontoxic concentration (MNC), concentration tested / maximal nontoxic concentration (MNC): Table 3; for maximal nontoxic concentration (MNC): MTT uptake assay
Experimental: The compounds under study were first dissolved in DMSO and further diluted in cell growth medium without fetal serum. All the solutions were prepared ex tempore.
CC50 and MNC were detected by MTT uptake assay. IC50 was studied on MT-4 cells by microtiter infection assay exploring the protection of cells from the cytopathic effect of HIV measured by MTT test. Experiments under conditions of acute infection were performed in 96-well microplates with 6–8 parallels/experiment. Cell controls (MT-4 cells with medium only) and viral controls (virus infected MT-4 cells) were run with each experiment. For antivirus assays, HIV was added to each well to obtain multiplicity of infection 0.1 except the cell controls. Virus attachment was allowed for an hour at 37°C/5% CO2. The plates were incubated for 72–96 hours at 37°C/5% CO2. After that, MTT test was performed as described and absorbance of viable cells was measured colorimetrically at A540 nm. […] For antiviral assays, the mean values of experimental and control rows were compared and the percentage of cells protected (cell survival) under the appropriate concentration of the substance was plotted against the concentration of the substance to obtain IC50. The cell survival (% of cell protection) was calculated according to the following formula: […]

native HIV-1 protease = target: T1, native HIV-1 protease (Human immunodeficiency virus type 1 group M subtype B, UniProt P04585); assay: Antiprotease activity using native viral PR, spectrophotometric substrate utilization; assay type: biochemical; conditions: compound at MNC
T1 construct: The lysis of viral particles and releasing of the active enzyme (protease) was performed using disrupting (lysis) buffer; endogenous in cells; host or cells: Virions from supernatants of chronically infected H9/HTLV IIIB cells, concentrated 50x and lysed with Triton X-100
Experimental: A method described earlier by Broglia et al., 2006 [19], for detection of recombinant protease activity was modified to use native viral protease. As a source of native HIV-1 protease, again suspension of concentrated viral stock (50x) from chronically infected H9/HTLV IIIB cell supernatants was used. The lysis of viral particles and releasing of the active enzyme (protease) was performed using disrupting (lysis) buffer containing 2.5% Triton X-100 in phosphate buffer. The concentration of the tissue culture fluid containing the virus was done by ultracentrifugation in Biofuge Stratos, Heraeus, for 1 hour, at 4°C and 35000 rev/min. The pellet was resuspended to obtain 50x concentrate in disrupting buffer.
The following reaction mixture was prepared for each experiment : 1000 μL phosphate buffer (20 mM, pH 6.0); 20 μL HIV protease substrate III ([…], 760 μM; Bachem, Switzerland) in DMSO, prepared ex tempore; 20 μL enzyme (stock HIV) taken from a solution containing 25 μL disrupting (lysis) buffer + 100 μL HIV-stock, incubated 40 min at 37°C prior to experiment.
The HIV-1 PR activity was measured using direct spectrophotometric reading of the enzyme reaction substrate utilization at 300 nm, at room temperature and 1 cm pathlength, using T80 + UV-Vis spectrophotometer (PG instruments). The initial reaction velocity (V0) was adjusted to be 0.0020–0.0030 ΔAbs/min by varying the enzyme activity (viral concentration). The tested compound and the reference inhibitor (pepstatin used here) was added to the reaction mixture prior to enzyme, in order to perform the screening for inhibitory effect. IC50 was defined as the concentration of the compound tested that decreases the velocity of the reaction by 50% of the initial velocity without tested (reference) compound.

HIV-1 III B = assay: Microtiter infection assay, protection of MT-4 cells from HIV cytopathic effect (MTT); assay type: cell-based; conditions: for Infection assay MTT- % cell survival / inhibition of virus infectivity / viral replication in MT-4 cells: HIV-1-infected MT-4 cells; for Infection assay MTT- % cell survival: compound at MNC, 72–96 hours
Experimental: The evaluation of anti-HIV effect was done by an in vitro rapid and sensitive microtiter infection assay based on cytolysis quantitation by vital dye (MTT) uptake as an endpoint for infection. Additionally, the effect of inhibitors on endogenous reverse transcriptase (RT) activity of HIV-1 III B-infected MT-4 supernatants was considered as a marker for the ability of blocking HIV-1 replication. MT-4 cells were infected and incubated with each inhibitor for 72–96 hours, and then RT activity was measured in the cell supernatants according to guidelines in the HS-Lenti Kit-RT assay (Cavidi, Sweden). A study of direct effect of the newly synthesized 4-hydroxycoumarins on exogenous recombinant RT (rRT) was also performed. Further, all the compounds were tested for anti-HIV-1 PR activity. Table 3 represents the results of microtiter infection assay using MTT and inhibition of HIV-1 PR activity. The experiments were carried out in maximal nontoxic concentration (MNC) for each compound.
MT-4—a human lymphoblastoid suspension cell line, kindly provided by Gianfranco Pancino— Institute Pasteur, (Unite de Regulation des Infections Retrovirales, Paris, France) represent a classical model for experimental productive infection with HIV-1 III B strain and used as a routine target for study of effect of putative HIV inhibitors in cell culture.
As a source of HIV-1, supernatants of H9/HTLV III B line—a gift from Dr. R. Gallo (NIH, USA)— were used. Supernatants were collected and centrifuged to remove the cells, and virus stocks were prepared with known p24 antigen content (460 pg/mL, Murex HIV Antigen mAB test), RT activity (565.3 pg RT/mL, HS-Lenti RT Activity Kit, Cavidi, Sweden), and infectivity (2 × 10^6 infectious virions/mL, microtiter infection assay). MT-4 and H9/HTLV III B cells were grown in RPMI 1640 supplemented with 10% FCS (invitrogen).
The following parameters were studied: cytotoxic concentration 50—CC50, where possible (the concentration preventing death of 50% of […] cells), maximal nontoxic concentration—MNC, and inhibitory concentration 50-IC50 (concentration inhibiting by 50% the viral replication). CC50 and MNC were detected by MTT uptake assay. IC50 was studied on MT-4 cells by microtiter infection assay exploring the protection of cells from the cytopathic effect of HIV measured by MTT test. Experiments under conditions of acute infection were performed in 96-well microplates with 6–8 parallels/experiment. Cell controls (MT-4 cells with medium only) and viral controls (virus infected MT-4 cells) were run with each experiment. For antivirus assays, HIV was added to each well to obtain multiplicity of infection 0.1 except the cell controls. Virus attachment was allowed for an hour at 37°C/5% CO2. The plates were incubated for 72–96 hours at 37°C/5% CO2. After that, MTT test was performed as described and absorbance of viable cells was measured colorimetrically at A540 nm. […] For antiviral assays, the mean values of experimental and control rows were compared and the percentage of cells protected (cell survival) under the appropriate concentration of the substance was plotted against the concentration of the substance to obtain IC50. The cell survival (% of cell protection) was calculated according to the following formula:
(1) % cell protection =A540X−A540 Control HIV/ A540 Cell Control−A540 Control HIV ×100, where X is the mean value of A540 of HIV-infected cells treated with appropriate concentration of the compound under study; control HIV is the mean value of A540 of HIV-infected cells without any compound added; cell control is the mean value of A540 of uninfected and untreated with inhibitor cells.

HIV-1 protease = test system: HIV-1 protease; design: method as in PMID 8185622; conditions: binding activity of the experimental ligands on HIV-1 protease; cited from earlier work

Row | Molecule | % Inhibition of HIV-1 protease activity (native HIV-1 protease) [%] | maximal nontoxic concentration (MNC) (MT-4 cells) | Infection assay MTT- % cell survival (HIV-1 III B) [%] | IC50 (HIV-1 protease) [µM] | also measured
1 | CC(C)CC(=O)N[C@H](C(=O)N[C@H](C(=O)N[C@@H](CC(C)C)[C@@H](O)CC(=O)N[C@@H](C)C(=O)N[C@@H](CC(C)C)[C@@H](O)CC(=O)O)C(C)C)C(C)C [Pepstatin, pepstatin, reference compound] (Isovaleryl-VV[Sta]A[Sta]-OH) | 100 | – | – | – | maximal nontoxic concentration (MNC), concentration tested (MT-4 cells): Pepstatin® (4.5 × 10^−5 M)
2 | CCOC(=O)C(C(C)=O)C(c1ccc(O)cc1)c1c(O)c2ccccc2oc1=O (stereo not shown) [(9), Ethyl 2-[(4-Hydroxy-2-Oxo-2H-Chromen-3-yl)(4-Hydroxyphenyl)Methyl]-3-Oxobutanoate] | 0 | (9) (0.0001) μM | 0 | – | –
3 | CCOC(=O)C(C(C)=O)C(c1ccc(C(=O)O)cc1)c1c(O)c2ccccc2oc1=O (stereo not shown) [(11), 4-[1-(4-Hydroxy-2-Oxo-2H-Chromen-3-yl)-2-(Ethoxycarbonyl)-3-Oxobutyl]Benzoic Acid] | 0 | (11) (0.0001) μM | 0 | – | –
4 | CCOC(=O)C(C(C)=O)C(c1cccc([N+](=O)[O-])c1)c1c(O)c2ccccc2oc1=O (stereo not shown) [Compound (7), Ethyl 2-[(4-Hydroxy-2-Oxo-2H-Chromen-3-yl)(3-Nitrophenyl)Methyl]-3-Oxobutanoate] | 25 | (7) (0.001) μM | 78 | – | maximal nontoxic concentration (MT-4 cells; as stated in abstract): 1 mM; inhibition of virus infectivity / viral replication in MT-4 cells (HIV-1 III B): 76–78%; IC50 (HIV-1 III B; Human immunodeficiency virus 1, MT4, read-out: IC50 (concentration inhibiting by 50% the viral replication)): 0.01 nM
5 | CCOC(=O)C(C(C)=O)C(c1ccc(O)c(O)c1)c1c(O)c2ccccc2oc1=O (stereo not shown) [(10), Ethyl 2-[(3,4-Dihydroxyphenyl)(4-Hydroxy-2-Oxo-2H-Chromen-3-yl)Methyl]-3-Oxobuta-Noate] | 16 | (10) (0.0001) μM | 30 | – | inhibition of virus infectivity / viral replication in MT-4 cells (HIV-1 III B): inhibited viral replication
6 | 3-(3,4-dimethoxybenzyl)-4-hydroxy-8-methyl-2H-chromen-2-one [Ligand (3)] | – | – | – | 23 | –
7 | 4-hydroxy-3-(3-oxo-1-phenylbutyl)-2H-chromen-2-one [Ligand (5)] | – | – | – | 18 | –
8 | 3-benzyl-4-hydroxy-8-phenyl-2H-chromen-2-one [Ligand (4)] | – | – | – | 8.1 | –
9 | CCOC(=O)C(C(C)=O)C(c1ccc([N+](=O)[O-])cc1)c1c(O)c2ccccc2oc1=O (stereo not shown) [(8), Ethyl 2-[(4-Hydroxy-2-Oxo-2H-Chromen-3-yl)(4-Nitrophenyl)Methyl]-3-Oxobutanoate] | 0 | (8) (0.001) μM | 0 | – | –
10 | 3-(3,4-dimethoxybenzyl)-4-hydroxy-2H-chromen-2-one [Ligand (2)] | – | – | – | 84 | –
11 | Nc1nc(NC2CC2)c2ncn([C@H]3C=C[C@@H](CO)C3)c2n1 [Abacavir, reference compound] | – | – | 98 | – | maximal nontoxic concentration (MNC), concentration tested (MT-4 cells): Abacavir® (35 × 10^−6 M)
12 | CC(=O)C(C(C)=O)C(c1ccc(O)cc1)c1c(O)c2ccccc2oc1=O (stereo not shown) [(12), 3-[(4-Hydroxy-2-Oxo-2H-Chromen-3-yl)(4-Hydroxyphenyl)Methyl]Pentane-2,4-Dione] | 0 | (12) (0.001) μM | 0 | – | –
13 | 4-hydroxy-3-(1-phenoxypropyl)-2H-chromen-2-one [Ligand (1)] | – | – | – | 2.7 | –
